Data on six compounds can be found in patent US20250163057A1, “DCN-1 MODULATING COMPOUNDS AND METHODS OF USE THEREOF” (Cellarity, Inc., priority 2023, published 2025).

The test system of assay [1] is fetal hemoglobin gene HBG1. As to the kind of experiment: HBG1 Nanostring Assay in CD34+ HSPC erythroid differentiation culture. It counts as cell-based, human. To be noted: for EC50: HBG1 induction, Day10 of erythroid differentiation; for Nanostring Ymax obs (%): relative to a control compound (C1). A digest of the protocol:
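CD34+ HSPCs were dosed from day −2 (0.1% DMSO) through two-phase erythroid differentiation (EPO, transferrin, SCF, IL-3, insulin; IL-3 removed from day 7) at 37° C, 5% CO2. Day-10 lysates of 100K cells were hybridized at 67° C for 22 h for nCounter counting, normalized to ERCC and housekeeping controls. EC50 and Ymax were derived, with Ymax relative to a control compound.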

Assay [2] has as its system Cullin-3 (CUL3) neddylation. As to the kind of experiment: AlphaLISA assay for Cullin-3 (CUL3) neddylation in TF 1 cells. Format: cell-based. To be noted: 3 hours treatment. A digest of the protocol:
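TF 1 cells in unsupplemented IMDM treated with compound concentrations for 3 h, then lysed. CUL3 neddylation detected by AlphaLISA (biotinylated anti-NEDD8, anti-CUL3 acceptor beads overnight, streptavidin donor beads 1 h); normalized to vehicle (0%) and 1 μM DI-1548 (100%), IC50 from Hill fits.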
Background: Bead proximity is the source of the signal in Alpha formats.

Structures are written as SMILES.

What is called EC50 is the concentration needed to bring the measured effect to its halfway point. Read a high EC50 as lower potency in that assay. In general, IC50 refers to the concentration that inhibits the measured activity by half. A higher IC50 goes with a need for much substance.

`CCN1C(=O)[C@@H](NC(=O)c2cccc(C(F)(F)F)c2)[C@@H](C2CC2)c2c(C(=O)N3CCNC[C@H]3C#N)nn(C3CCOCC3)c21` [Compound I-582]: the EC50 in assay [1] (Homo sapiens, 240 h) was in the range of 100 to 1000 nM. Moreover, the “Nanostring Ymax obs (%)” value in assay [1] is reported as “+++ (Nanostring Ymax greater than 100.0)”. The compound further had a 50% inhibitory concentration (IC50) in assay [2] (Homo sapiens, TF-1, 3 h) of no more than 100 nM.
Consider `CCN1C(=O)[C@@H](NC(=O)c2cccc(C(F)(F)F)c2)[C@@H](c2ccc(F)cc2)c2c(C(=O)N3CCC[C@H]3C#N)nn(C3CCOCC3)c21` [Compound I-350], for which, in assay [1], the EC50 was no more than 100 nM and the “Nanostring Ymax obs (%)” value was “+++ (Nanostring Ymax greater than 100.0)”. In addition, the 50% inhibitory concentration (IC50) in assay [2] is no more than 100 nM.
Take `CCN1C(=O)[C@@H](NC(=O)c2cccc(C(F)(F)F)c2)[C@@H](c2ccc(F)cc2)c2c(C(=O)NC3(C#N)CC3)nn(-c3ccccc3)c21` [Compound I-112]: the concentration giving a half-maximal response (EC50) in assay [1] (Homo sapiens, 240 h) lay within 100 to 1000 nM. In assay [1], the “Nanostring Ymax obs (%)” value is listed as “+++ (Nanostring Ymax greater than 100.0)”. The compound also came in with a half-maximal inhibitory concentration (IC50) in assay [2] (Homo sapiens, TF-1, 3 h) of 100 to 1000 nM.
In assay [1] (Homo sapiens, 240 h), `CCN1C(=O)[C@@H](NC(=O)c2cccc(C(F)(F)F)c2)[C@@H](c2ccc(F)cc2)c2c(CNC#N)nn(-c3ccccc3)c21` [Compound I-140, N-[(4S, 5S)-3-[(cyanoamino)methyl]-7-ethyl-4-(4-fluorophenyl)-6-oxo-1-phenyl-4,5-dihydropyrazolo[3,4-b]pyridine-5-yl]-3-(trifluoromethyl) benzamide] came in with an EC50 of 100 to 1000 nM. The “Nanostring Ymax obs (%)” value in assay [1] is “++ (Nanostring Ymax greater than 50.0 and less than or equal to 100.0)”. Besides, the half-inhibitory concentration (IC50) in assay [2] (Homo sapiens, TF-1, 3 h) was no more than 100 nM.
`CCN1C(=O)[C@@H](NC(=O)c2cccc(C(F)(F)F)c2)[C@@H](C2CC2)c2c(C(=O)N3CC[C@H](OC)[C@H]3C#N)nn(C3CCOCC3)c21` [Compound I-418] registered an EC50 in assay [1] (Homo sapiens, 240 h) of no more than 100 nM. Further, the “Nanostring Ymax obs (%)” value in assay [1] is “+++ (Nanostring Ymax greater than 100.0)”. The IC50 in assay [2] (Homo sapiens, TF-1, 3 h) is no more than 100 nM.
Compound `CCN1C(=O)[C@@H](NC(=O)c2cccc(C(F)(F)F)c2)[C@@H](C2CC2)c2c(C(=O)N3C[C@H](F)C[C@H]3C#N)nn(C3CCOCC3)c21` [Compound I-372] gave an EC50 in assay [1] (Homo sapiens, 240 h) of 100 to 1000 nM. In addition, the “Nanostring Ymax obs (%)” value in assay [1] was “++ (Nanostring Ymax greater than 50.0 and less than or equal to 100.0)”. The same compound displayed a half-inhibitory concentration (IC50) in assay [2] (Homo sapiens, TF-1, 3 h) of no more than 100 nM.
